Experiments:
[1] = test system: EMT induction (E-cadherin, Fibronectin, Slug); assay: Western blot of epithelial and mesenchymal markers upon EMT induction; type: cell-based; details: TGF-β or OSM; FIG. 8D
Protocol: Cell culture. MCF7 (ATCC) cells, DU-145 (ATCC) cells and FC1245 cells were cultured in Dulbecco's Modified Eagle Medium GlutaMAX (DMEM, ThermoFisher Scientific, 61965059) supplemented with 10% Fetal Bovine Serum (FBS, Gibco, 10270-106) and Penicillin-Streptomycin mixture (BioWhittaker/Lonza, DE17-602E) unless stated otherwise. Primary lung circulating tumor cells (Celprogen, 36107-34CTC, Lot 219411) were grown using stem cell complete media (Celprogen, M36102-29PS) until the third passage. Circulating cancer cells were grown in stem cell ECM T75-flasks (Celprogen, E36102-29-T75) and ECM 6-well plates (Celprogen, E36102-29-6Well). […]
Western Blotting. […] Proteins were solubilized in 2× Laemmli buffer containing benzonase (VWR, 70664-3, 1:100), extracts were incubated at 37° C. for 1 h, and quantified using a NanoDrop 2000 spectrophotometer (ThermoFisher Scientific). […] Antigens were detected using the SuperSignal West Pico PLUS chemiluminescent detection kits (ThermoFisher Scientific, 34580 and 34096). Signals were recorded using a Fusion Solo S Imaging System (Vilber) and quantified as indicated using ImageJ. […]

[2] = test system: mice challenged by cecal ligation and puncture; assay: Murine model of sepsis using cecal ligation and puncture (CLP); type: in vivo, BALB/c mice
Protocol: Murine model of sepsis using cecal ligation and puncture. All animal-related research is conducted in accordance with 2010/63/EU and National legislation regulating the use of laboratory animals in scientific research and for other purposes (Official Gazette 55/13). An Institutional Committee on Animal Research Ethics (CEEA-047) oversees that animal-related procedures are not compromising the animal welfare. 9 weeks-old male BALB/c mice were used for these experiments. Animals were anesthetized by isoflurane (Forene). After abdominal incision, the cecum was ligated, punctured with a gauge needle (25G or 21G), and a small amount of fecal matter was released. After the cecum was returned to the abdomen, the abdominal cavity was closed in two layers and the mice were resuscitated with 30 mL/kg body weight of saline (0.9% NaCl) administered subcutaneously. For the sham group, after abdominal incision, the cecum was manipulated but was neither ligated nor punctured. After the cecum was returned to the abdomen, the abdominal cavity was closed in two layers and the mice were resuscitated with 30 mL/kg body weight of saline administered subcutaneously. LCC-12 (0.3 mg/kg, IP) was administered at 0.3 mg/kg dose 4 h, 24 h, 48 h, 72 h and 96 h following CLP creation. Mortality incidence was monitored every 2 h up to 120 h (except from 10 pm to 6 am) post CLP creation. Dexamethasone was administered intraperitoneally at 1 mg/kg dose 5-minutes prior CLP creation.

neutrophils = assay: Activation of neutrophils (CD64, CD66b flow cytometry); type: cell-based, human; details: LCC-12 10 μM, 1 h, LPS; FIG. 6C
Protocol: Neutrophils. Peripheral blood samples were collected from healthy donors (Etablissement Français du Sang). Then, red cells in whole blood samples were lysed (ebioscience 10×RBC lysis buffer, 00-4300-54). The remaining cells were cultured in RPMI 1640 supplemented with glutamine, and 2% human serum, and activated 1 h with LPS (2 μg/mL) in presence of LCC-12 (10 μM). The granulocytes/neutrophils population was determined by flow cytometry using FSC, SSC and CD15 surface marker. The activation status of the granulocytes was assessed by measuring CD64 and CD66b surface markers by flow cytometry.

dendritic cells = assay: Activation of dendritic cells (CD40, CD83, CD80, CD86 flow cytometry); type: cell-based, human; details: LCC-12 10 μM, 24 h, LPS; FIG. 6E
Protocol: Dendritic cells. Peripheral blood samples were collected from healthy donors (Etablissement Français du Sang). Pan monocytes were isolated by negative magnetic sorting using microbeads according to the manufacturer's instructions (Miltenyi Biotec, 130-096-537), and cultured in RPMI 1640 supplemented with glutamine, 10% fetal bovine serum and treated with granulocyte-macrophage colony-stimulating factor (GM-CSF, 100 ng/mL) and IL-4 (10 ng/mL) to induce differentiation into dendritic cells (DC). At day 5 of differentiation, DC were treated with lipopolysaccharides (LPS, 100 ng/mL, 24 h) to generate activated DC and were co-treated with LCC-12 (in-house, 10 μM, 24 h). The activation status of the dendritic cells was assessed by measuring CD40, CD83, CD80 and CD86 surface markers by flow cytometry.

N=C(N)NC(=N)NCCCCCCCCCCCCNC(=N)NC(=N)N [LCC-12, lipophilic copper clamp C12]
EMT induction (E-cadherin, Fibronectin, Slug levels) [1]: antagonized EMT induction
survival in CLP sepsis ([2]; 21G needle, LCC-12 0.3 mg/kg IP, FIG. 5A): delayed death and increased survival rate
body weight loss in CLP-induced sublethal sepsis ([2]; 25G needle, LCC-12 0.3 mg/kg IP, FIG. 5C): reduced body weight loss
overall gravity score of symptoms in CLP-induced sublethal sepsis ([2]; 25G needle, LCC-12 0.3 mg/kg IP, FIG. 5D): improved the overall gravity score of symptoms
symptoms of sepsis compared to dexamethasone ([2]; CLP, throughout the treatments): considerably attenuated the symptoms of sepsis compared to dexamethasone
activation of neutrophils in vitro (neutrophils): does not impact the activation
activation of dendritic cells (dendritic cells): decreases the activation

Reference: patent US20230416196A1, “DIMER OF BIGUANIDINES AND THEIR THERAPEUTIC USES” (INSTITUT CURIE, priority 2020, published 2023)
